Measured values from patent US20260191849A1, “PHARMACEUTICAL COMPOSITION FOR TREATMENT OF CANCER” (WIGEN BIOMEDICINE TECHNOLOGY (SHANGHAI) CO., LTD., priority 2022, published 2026).
Read-outs that look alike come from different tables or passages of the source.

Key:
[1] = tested on: HT29 subcutaneous xenograft tumors; experiment: In vivo pharmacodynamic study, HT29 subcutaneous xenograft tumor model of mice (Biological Example 3); set-up: species or system BALB/c nude mice; conditions: 80 mg/kg intragastric once daily, day 28
Procedure: BALB/c nude mice were each inoculated subcutaneously with 5×10^6 HT29 cells on the left dorsal side. After the tumors grew to 100-150 mm^3, the mice were randomly divided into the following groups for intragastric administration once daily: group 1: vehicle control group; group 2: compound 661 (80 mg/kg); group 3: compound 669 (80 mg/kg); group 4: compound 677 (80 mg/kg); group 5: compound 714 (80 mg/kg); group 6: compound 727 (80 mg/kg); group 7: compound 740 (80 mg/kg); and group 8: AMG65 (80 mg/kg). The tumor volume was measured twice weekly and at the end of administration. […].

HT29 cells [2] = experiment: Combined use of compound 257 or AMG650 with PLK1 inhibitor on HT29 cell viability, 168 h (Biological Example 7); type: cell-based; conditions: for Maximum inhibition rate / Minimum inhibition rate / IC50: HT29 cells; for IC50: Homo sapiens, HT-29, 168 h; for inhibitory effect on HT-29 cells, combined use with the PLK1 inhibitor compared with monotherapy: Volasertib, in words
Procedure: (§1) HT29 cells were seeded on a 384-well plate at 3000 cells/well. After overnight adherence culture, DMSO or compound 257 or AMG650 serially diluted in a 1:5 ratio from 400 nM and a PLK1 inhibitor with a specified concentration were added. The cell viability was assessed 168 h after dosing by measuring the intracellular ATP content. The inhibition percentages of viable cells by the compounds were calculated by comparing with the DMSO group, and the IC50 values were also calculated.

HCT116 cells [3] = experiment: Combined use of compound 257 or AMG650 with PLK1 inhibitor on HCT116 cell viability, 168 h (Biological Example 8); type: cell-based; conditions: for synergistic effect on HCT116 cell viability, combined use with the PLK1 inhibitor: Volasertib
Procedure: as §1, with “HCT116” for “HT29”, “10 μM” for “400 nM”

HT29 cells [4] = experiment: Combined use of compound 257, AMG650 or Compound A with PLK1 inhibitor on HT29 cell viability, 168 h (Biological Example 19); type: cell-based; conditions: for inhibitory effect on HT-29 cells, combined use with the PLK1 inhibitor compared with monotherapy: CYC140 or TAK-960, in words; for IC50: Homo sapiens, HT-29, 168 h, HT29 cells, read-out: IC50
Procedure: HT29 cells were seeded on a 384-well plate at 3000 cells/well.

HCT116 cells [5] = experiment: Combined use of compound 257, AMG650 or Compound A with PLK1 inhibitor on HCT116 cell viability, 168 h (Biological Example 20); type: cell-based; conditions: for synergistic effect on HCT116 cell viability, combined use with the PLK1 inhibitor: CYC140 or TAK-960, in words; for anti-proliferative activity against HCT116 cells, monotherapy: in words
Procedure: as §1, with “HCT116” for “HT29”, “257, AMG650,” for “257”, “Compound A” for “AMG650”

SK-OV-3 cells = experiment: Combined use of compound 257 or AMG650 with PLK1 inhibitor on SK-OV-3 cell viability, 168 h (Biological Example 21); type: cell-based; conditions: for inhibitory effect on SK-OV-3 cells, combined use with the PLK1 inhibitor compared with monotherapy: Volasertib, in words; for IC50: Homo sapiens, SK-OV-3, 168 h
Procedure: (§2) SK—OV-3 cells were seeded on a 384-well plate at 3000 cells/well. After overnight adherence culture, DMSO or compound 257 or AMG650 serially diluted in a 1:5 ratio from 400 nM and a PLK1 inhibitor with a specified concentration were added. The cell viability was assessed 168 h after dosing by measuring the intracellular ATP content. […] Furthermore, interactions between the drugs were also analyzed using the BLISS independence model, and the results are shown in FIG. 11 and FIG. 12.

HT29 cells [6] = experiment: Combined use of compound 257 or AMG650 with PLK1 inhibitor (Volasertib) on HT29 cell viability, 168 h (Biological Example 22); type: cell-based; conditions: for inhibitory effect on HT-29 cells, combined use with the PLK1 inhibitor compared with monotherapy: Volasertib, in words; for IC50: Homo sapiens, HT-29, 168 h
Procedure: as §2, with “HT29” for “SK—OV-3”, “15” for “11”, “16.” for “12.”

HCT116 cells [7] = experiment: Combined use of compound 257 with Aurora B inhibitor on HCT116 cell viability, 72 h (Biological Example 12); type: cell-based
Procedure: as §1, with “HCT116” for “HT29”, “257” for “257 or AMG650”, “5 μM” for “400 nM”, “an Aurora B” for “a PLK1”, “72” for “168”

[8] = HCT116 cells, Volasertib 3.12 nM
[9] = HCT116 cells, Volasertib 6.25 nM
[10] = Homo sapiens, HCT-116, HCT116 cells, Volasertib 0 nM
[11] = HCT116 cells, CYC140 (Plogosertib) 1.6 nM
[12] = HCT116 cells, CYC140 (Plogosertib) 8 nM
[13] = HCT116 cells, CYC140 (Plogosertib) 40 nM
[14] = Homo sapiens, HCT-116, HCT116 cells, CYC140 (Plogosertib) 0 nM
[15] = SK-OV-3 cells, 168 h, Volasertib 0.0001 nM, read-out: IC50
[16] = SK-OV-3 cells, 168 h, Volasertib 6.25 nM, read-out: IC50
[17] = SK-OV-3 cells, 168 h, Volasertib 12.5 nM, read-out: IC50
[18] = SK-OV-3 cells, 168 h, Volasertib 25 nM, read-out: IC50
[19] = SK-OV-3 cells, 168 h, Volasertib 50 nM, read-out: IC50
[20] = HT29 cells, 168 h, Volasertib 0.0001 nM, read-out: IC50
[21] = HT29 cells, 168 h, Volasertib 3.13 nM, read-out: IC50
[22] = HT29 cells, 168 h, Volasertib 12.5 nM, read-out: IC50
[23] = HT29 cells, 168 h, Volasertib 25 nM, read-out: IC50

## Cc1cc(NC(=O)c2ccc(NS(=O)(=O)CCO)cc2N2CCC3(CC2)CC3)nc(N2CCC(F)(F)CC2)n1 [AMG650]
[1]
  TGI: 64%
HT29 cells [2]; Volasertib 0 nM
  Maximum inhibition rate: 96.5%
  Minimum inhibition rate: −1.4%
  IC50: 0.0844 µM
HT29 cells [2]; Volasertib 3.12 nM
  Maximum inhibition rate: 95.8%
  Minimum inhibition rate: 3.3%
  IC50: 0.0266 µM
HT29 cells [2]; Volasertib 6.25 nM
  Maximum inhibition rate: 97.0%
  Minimum inhibition rate: −0.4%
  IC50: 0.0164 µM
HT29 cells [2]
  inhibitory effect on HT-29 cells, combined use with the PLK1 inhibitor compared with monotherapy: stronger inhibitory effect
HCT116 cells [3]; [8]
  IC50: > 10 µM
HCT116 cells [3]; [9]
  IC50: > 10 µM
HCT116 cells [3]; [10]
  IC50: > 10 µM
HCT116 cells [3]; in words
  synergistic effect on HCT116 cell viability, combined use with the PLK1 inhibitor: no significant synergistic effect
  anti-proliferative activity against HCT116 cells, monotherapy: did not exhibit anti-proliferative activity
HT29 cells [4]
  inhibitory effect on HT-29 cells, combined use with the PLK1 inhibitor compared with monotherapy: stronger inhibitory effect
HT29 cells [4]; CYC140 (Plogosertib) 0.0001 nM
  IC50: 0.0918 µM
HT29 cells [4]; CYC140 (Plogosertib) 1.6 nM
  IC50: 0.0744 µM
HT29 cells [4]; CYC140 (Plogosertib) 8 nM
  IC50: 0.0506 µM
HT29 cells [4]; CYC140 (Plogosertib) 40 nM
  IC50: 0.0111 µM
HT29 cells [4]; TAK-960 0.0001 nM
  IC50: 0.0889 µM
HT29 cells [4]; TAK-960 1.6 nM
  IC50: 0.0586 µM
HT29 cells [4]; TAK-960 8 nM
  IC50: 0.0165 µM
HT29 cells [4]; TAK-960 40 nM
  IC50: 0.0161 µM
HCT116 cells [5]
  synergistic effect on HCT116 cell viability, combined use with the PLK1 inhibitor: no significant synergistic effect
  anti-proliferative activity against HCT116 cells, monotherapy: did not exhibit anti-proliferative activity
HCT116 cells [5]; [11]
  IC50: > 0.4 µM
HCT116 cells [5]; [12]
  IC50: > 0.4 µM
HCT116 cells [5]; [13]
  IC50: > 0.4 µM
HCT116 cells [5]; HCT116 cells, TAK-960 0 nM
  IC50: > 0.4 µM
HCT116 cells [5]; HCT116 cells, TAK-960 1.6 nM
  IC50: > 0.4 µM
HCT116 cells [5]; HCT116 cells, TAK-960 8 nM
  IC50: > 0.4 µM
HCT116 cells [5]; HCT116 cells, TAK-960 40 nM
  IC50: > 0.4 µM
HCT116 cells [5]; [14]
  IC50: > 0.4 µM
SK-OV-3 cells; 168 h
  inhibitory effect on SK-OV-3 cells, combined use with the PLK1 inhibitor compared with monotherapy: stronger inhibitory effect
SK-OV-3 cells
  IC50: 0.066 µM
SK-OV-3 cells; [15]
  IC50: 0.0722 µM
SK-OV-3 cells; [16]
  IC50: 0.0517 µM
SK-OV-3 cells; [17]
  IC50: 0.0345 µM
SK-OV-3 cells; [18]
  IC50: 0.0271 µM
SK-OV-3 cells; [19]
  IC50: 0.0112 µM
HT29 cells [6]; 168 h
  inhibitory effect on HT-29 cells, combined use with the PLK1 inhibitor compared with monotherapy: stronger inhibitory effect
HT29 cells [6]
  IC50: 0.0302 µM
HT29 cells [6]; [20]
  IC50: 0.0799 µM
HT29 cells [6]; [21]
  IC50: 0.043 µM
HT29 cells [6]; [22]
  IC50: 0.0142 µM
HT29 cells [6]; [23]
  IC50: 0.0059 µM

## COc1ccc(NC(=O)c2ccc(NS(=O)(=O)CCO)cc2N2CCC3(CC2)CC3)nc1N1CCC(F)(F)CC1 [Compound 257]
HT29 cells [2]; Volasertib 0 nM
  Maximum inhibition rate: 85.3%
  Minimum inhibition rate: 3.2%
  IC50: 0.014 µM
HT29 cells [2]; Volasertib 3.12 nM
  Maximum inhibition rate: 94.6%
  Minimum inhibition rate: 1.8%
  IC50: 0.007 µM
HT29 cells [2]; Volasertib 6.25 nM
  Maximum inhibition rate: 94.4%
  Minimum inhibition rate: 0.5%
  IC50: 0.0028 µM
HT29 cells [2]
  inhibitory effect on HT-29 cells, combined use with the PLK1 inhibitor compared with monotherapy: stronger inhibitory effect
HCT116 cells [3]; [8]
  IC50: > 10 µM
HCT116 cells [3]; [9]
  IC50: > 10 µM
HCT116 cells [3]; [10]
  IC50: > 10 µM
HCT116 cells [3]; in words
  synergistic effect on HCT116 cell viability, combined use with the PLK1 inhibitor: no significant synergistic effect
HCT116 cells [7]; HCT116 cells, Barasertib 0 nM
  IC50: > 10 µM
HCT116 cells [7]; HCT116 cells, Barasertib 10 nM
  IC50: > 10 µM
HCT116 cells [7]; HCT116 cells, Barasertib 100 nM
  IC50: > 10 µM
HCT116 cells [7]; Homo sapiens, HCT-116, HCT116 cells, Barasertib 1000 nM
  IC50: > 10 µM
HCT116 cells [7]; in words
  anti-proliferative activity against HCT116 cells, monotherapy: did not exhibit anti-proliferative activity
  synergistic effect on HCT116 cell viability, combined use with the Aurora B inhibitor: no significant synergistic effect
HT29 cells [4]
  inhibitory effect on HT-29 cells, combined use with the PLK1 inhibitor compared with monotherapy: stronger inhibitory effect
HT29 cells [4]; CYC140 (Plogosertib) 0.0001 nM
  IC50: 0.0106 µM
HT29 cells [4]; CYC140 (Plogosertib) 1.6 nM
  IC50: 0.0083 µM
HT29 cells [4]; CYC140 (Plogosertib) 8 nM
  IC50: 0.0069 µM
HT29 cells [4]; CYC140 (Plogosertib) 40 nM
  IC50: 0.0009 µM
HT29 cells [4]; TAK-960 0.0001 nM
  IC50: 0.0101 µM
HT29 cells [4]; TAK-960 1.6 nM
  IC50: 0.0085 µM
HT29 cells [4]; TAK-960 8 nM
  IC50: 0.0017 µM
HT29 cells [4]; TAK-960 40 nM
  IC50: 0.0017 µM
HCT116 cells [5]
  synergistic effect on HCT116 cell viability, combined use with the PLK1 inhibitor: no significant synergistic effect
  anti-proliferative activity against HCT116 cells, monotherapy: did not exhibit anti-proliferative activity
HCT116 cells [5]; [11]
  IC50: > 0.4 µM
HCT116 cells [5]; [12]
  IC50: > 0.4 µM
HCT116 cells [5]; [13]
  IC50: > 0.4 µM
HCT116 cells [5]; HCT116 cells, TAK-960 0 nM
  IC50: > 0.4 µM
HCT116 cells [5]; HCT116 cells, TAK-960 1.6 nM
  IC50: > 0.4 µM
HCT116 cells [5]; HCT116 cells, TAK-960 8 nM
  IC50: > 0.4 µM
HCT116 cells [5]; HCT116 cells, TAK-960 40 nM
  IC50: > 0.4 µM
HCT116 cells [5]; [14]
  IC50: > 0.4 µM
SK-OV-3 cells; 168 h
  inhibitory effect on SK-OV-3 cells, combined use with the PLK1 inhibitor compared with monotherapy: stronger inhibitory effect
SK-OV-3 cells; [15]
  IC50: 0.0154 µM
SK-OV-3 cells; SK-OV-3 cells, 168 h, Volasertib 3.13 nM, read-out: IC50
  IC50: 0.0128 µM
SK-OV-3 cells; [16]
  IC50: 0.0122 µM
SK-OV-3 cells; [17]
  IC50: 0.0087 µM
SK-OV-3 cells; [18]
  IC50: 0.0059 µM
SK-OV-3 cells; [19]
  IC50: 0.002 µM
HT29 cells [6]; 168 h
  inhibitory effect on HT-29 cells, combined use with the PLK1 inhibitor compared with monotherapy: stronger inhibitory effect
HT29 cells [6]; [20]
  IC50: 0.0109 µM
HT29 cells [6]; [21]
  IC50: 0.0079 µM
HT29 cells [6]; HT29 cells, 168 h, Volasertib 6.25 nM, read-out: IC50
  IC50: 0.0059 µM
HT29 cells [6]; [22]
  IC50: 0.0025 µM
HT29 cells [6]; [23]
  IC50: 0.0004 µM
